Test results taken from patent publication US8188287B2, “Piperidyl acrylamide antagonists of CCR2” (Janssen Pharmaceutica N.V., priority 2008, dated 2012).

Target: T1, CCR2 (Homo sapiens, UniProt P41597)
T1 construct: host or cells: THP-1 (human monocytic cell line)
Assay: MCP-1 Receptor Binding Assay in THP-1 Cells
Details: 125I labeled MCP-1 0.5 nM; for IC50: 2 hours at 30° C., read-out: Inhibition of MCP-1 Binding IC50; for Inhibition of MCP-1 Binding Inh (%): test concentration of 25 μM
Method: MCP-1 Receptor Binding Assay in THP-1 Cells
Human monocytic cell line THP-1 cells were obtained from American Type Culture Collection (Manassas, Va., USA). The THP-1 cells were grown in RPMI-1640 (RPMI: Roswell Park Memorial Institute Medium-cell culture growth media) supplemented with 10% fetal bovine serum in a humidified 5% CO2 atmosphere at 37° C. The cell density was maintained […].
THP-1 (cells were incubated with 0.5 nM ^125I labeled MCP-1 (Perkin-Elmer Life Sciences, Inc. Boston, Mass.) in the presence of varying concentrations of either unlabeled MCP-1 (R & D Systems, Minneapolis, Minn.) or test compound for 2 hours at 30° C. in a 96 well plate. Cells were then harvested onto a filter plate, dried, and 20 μL of Microscint 20 was added to each well. Plates were counted in a TopCount NXT, Microplate Scintillation & Luminescence Counter (Perkin-Elmer Life Sciences, Inc. Boston, Mass.). Blank values (buffer only) were subtracted from all values and drug treated values were compared to vehicle treated values. 1 μM cold MCP-1 was used for nonspecific binding.
Table 1 lists IC50 values for inhibition of MCP-1 binding to CCR2 obtained for test compounds of the invention. Where an IC50 value was not obtained for a particular compound, the percent inhibition is provided at a test concentration of 25 μM. TABLE 1 Inhibition of MCP-1 Binding IC50 (μM)

T1 sequence (P41597 whole entry): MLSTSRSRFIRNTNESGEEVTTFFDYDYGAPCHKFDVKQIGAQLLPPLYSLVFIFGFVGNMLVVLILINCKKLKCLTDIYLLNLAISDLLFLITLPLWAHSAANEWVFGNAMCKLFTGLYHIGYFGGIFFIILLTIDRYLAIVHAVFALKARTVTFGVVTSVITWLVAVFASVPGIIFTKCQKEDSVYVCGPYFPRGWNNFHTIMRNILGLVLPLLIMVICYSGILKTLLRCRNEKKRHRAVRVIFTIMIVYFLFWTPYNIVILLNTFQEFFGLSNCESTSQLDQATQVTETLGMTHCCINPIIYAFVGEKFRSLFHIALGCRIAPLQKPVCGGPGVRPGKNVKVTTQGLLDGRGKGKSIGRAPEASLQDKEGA

Structure (SMILES): O=C(O)C(NN1CCC(c2c[nH]c3ccccc23)CC1)C1CCN(C(=O)/C=C/c2cc(F)c(F)c(F)c2)CC1 (racemic) [Compound 5d, [4-(1H-Indol-3-yl)-piperidin-1-ylamino]-{1-[3-(3,4,5-trifluoro-phenyl)-acryloyl]-piperidin-4-yl}-acetic acid]
- IC50: 640 nM

Structure (SMILES): O=C(/C=C/c1cc(F)c(F)c(F)c1)N1CCC(NN2CCC(c3c[nH]c4ccccc34)CC2)CC1 [Compound 3a, 1-{4-[4-(1H-Indol-3-yl)-piperidin-1-ylamino]-piperidin-1-yl}-3-(3,4,5-trifluoro-phenyl)-propenone]
- IC50: 1600 nM

Structure (SMILES): CN(C1CCN(C(=O)/C=C/c2cc(F)c(F)c(F)c2)CC1)N1CCC(c2c[nH]c3ccccc23)CC1 [Compound 4a, 1-(4-{[4-(1H-Indol-3-yl)-piperidin-1-yl]-methyl-amino}-piperidin-1-yl)-3-(3,4,5-trifluoro-phenyl)-propenone]
- Inhibition of MCP-1 Binding Inh (%): 59%

Structure (SMILES): CCN(C1CCN(C(=O)/C=C/c2cc(F)c(F)c(F)c2)CC1)N1CCC(c2c[nH]c3ccccc23)CC1 [Compound 4b, 1-(4-{Ethyl-[4-(1H-indol-3-yl)-piperidin-1-yl]-amino}-piperidin-1-yl)-3-(3,4,5-trifluoro-phenyl)-propenone]
- Inhibition of MCP-1 Binding Inh (%): 34%

Structure (SMILES): CC(C)CN(C1CCN(C(=O)/C=C/c2cc(F)c(F)c(F)c2)CC1)N1CCC(c2c[nH]c3ccccc23)CC1 [Compound 4c, 1-(4-{[4-(1H-Indol-3-yl)-piperidin-1-yl]-isobutyl-amino}-piperidin-1-yl)-3-(3,4,5-trifluoro-phenyl)-propenone]
- Inhibition of MCP-1 Binding Inh (%): 0%

Structure (SMILES): O=C(/C=C/c1cc(F)c(F)c(F)c1)N1CCC(N(CC(O)CO)N2CCC(c3c[nH]c4ccccc34)CC2)CC1 (stereo not shown) [Compound 4d, 1-(4-{(2,3-Dihydroxy-propyl)-[4-(1H-indol-3-yl)-piperidin-1-yl]-amino}-piperidin-1-yl)-3-(3,4,5-trifluoro-phenyl)-propenone]
- IC50: 1400 nM

Structure (SMILES): O=C(/C=C/c1cc(F)c(F)c(F)c1)N1CCC(N(Cc2ncc[nH]2)N2CCC(c3c[nH]c4ccccc34)CC2)CC1 [Compound 4e, 1-(4-{(1H-Imidazol-2-ylmethyl)-[4-(1H-indol-3-yl)-piperidin-1-yl]-amino}-piperdin-1-yl)-3-(3,4,5-trifluoro-phenyl)-propenone]
- Inhibition of MCP-1 Binding Inh (%): 20%
